Measurements reported in paper PMC6689975, “Novel Cell Wall Antifungals Reveal a Special Synergistic Activity in pbr1 Mutants Resistant to the Glucan Synthesis Antifungals Papulacandins and Echinocandins” (Frontiers in Microbiology, 2019).
Like-named read-outs stand apart in the source and are kept apart here.

Legend:
Assay in all cases: microbe, parasite or virus in culture
Design in all cases: species or system whole yeast cells; micro-culture broth dilution MIC in YES at 30 C, turbidity, complete growth inhibition
[1] = system: T1, S. cerevisiae wild-type CVX12-3A; details: Saccharomyces cerevisiae, read-out: MIC
T1 construct: CVX12-3A
Method: (§1) Standard YEPD (Yeast Extract, Peptone, Dextrose) ([Sherman, 1990]), YEPD+S (YEPD with 1.2M sorbitol), YES (Yeast Extract, Dextrose and Supplements of Adenine, Histidine, Leucine, Uracil and Lysine) ([Alfa et al., 1993]) and YES+S (YES with 1.2 M sorbitol) ([Ribas et al., 1991]; [Ishiguro et al., 1997]), media were used for determination of MIC values of the tested compounds. A stock solution of 10 mg/ml of each tested compounds was prepared in DMSO and serial dilutions in DMSO were prepared. The final concentration of DMSO was 2% in the YEPD medium. […] The serial dilutions of compounds were dispensed into test tubes with 1 ml of YEPD or YEPD+S to make final concentrations of 200, 100, 50, 25, 12.5, 6.26, 3.125, 1.6, 0.8 and 0.4 μg/ml. The tested yeast strains were previously grown in YEPD, YEPD+S, YES or YES+S agar plates at 30°C for 48 h. Micro-culture assays of large numbers of samples were analyzed as described) ([Martins et al., 2011]). Essentially early log-phase cells were grown in YEPD, YEPD+S, YES or YES+S (1.2 M sorbitol) medium at 30°C, and diluted to cell density of 4 X 10^6 cells/ml in YEPD, YEPD+S, YES or YES+S medium and aliquots of 100 μl were dispensed into each small test tube (3 ml test tube size). Then, another 100 μl of YEPD, YEPD+S, YES or YES+S with the corresponding dilution of each compound at 2X concentration (4% DMSO) was added. The final volume was 200 μl, with the cells diluted to of 2 X 10^6 cells/ml and each compound diluted to 1X final concentration, containing increasing concentrations of antifungal (0, 1, 2, 5, 10, 20, 50, 100 and 200 μg/ml) or an equivalent volume of solvent (2% DMSO). The cells were grown at 30°C in an orbital roller and turbidity was analyzed after 24 and 48 h of incubation. The MIC was determined as the minimal concentration of tested compound that produced complete cell growth inhibition and kept the medium clear. The MIC values were calculated from at least three independent experiments. Next, the first generation of isochromanones (1E-16E) was also screened in YES medium (Table 5) and exerted a weaker antifungal potency than in YEPD medium and also than the second family of isochromanones in YES medium (17E-30E) (Table 6). The strains are partly different from the previously mentioned ones (Tables 5, 6) analyzing two wild type C. albicans strains because they behaved similarly in YEPD. It is remarkable that there was no effect against either the C. albicans, the S. cerevisiae, or the S. pombe wild-type strains, except with 30E.

[2] = system: C. albicans wild-type; details: Candida albicans, read-out: MIC
Method: as §1

[3] = system: T2, S. pombe wild-type 972 h-; details: Schizosaccharomyces pombe, read-out: MIC
T2 construct: 972 h-
Method: as §1

[4] = system: C. albicans wild-type; details: Candida albicans, read-out: MIC; remark: listed apart in the source
Method: as §1

Measured: MIC

Cc1cc(C)c(/C=C2/C(=O)OCc3ccccc32)c(C)c1 [18E]
> 200 µg/mL: all assays above

Cc1ccccc1/C=C1/C(=O)OCc2ccccc21 [20E]
> 200 µg/mL: all assays above

COc1cccc(/C=C2/C(=O)OCc3ccccc32)c1 [22E]
> 200 µg/mL: all assays above

O=C1OCc2ccccc2/C1=C\c1ccc(Cl)cc1 [23E]
> 200 µg/mL: all assays above

O=C1OCc2ccccc2/C1=C\c1cccc([N+](=O)[O-])c1 [24E]
> 200 µg/mL: all assays above

O=C1OCc2ccccc2/C1=C/c1cccc([N+](=O)[O-])c1 [24Z]
> 200 µg/mL: all assays above

COc1cc(/C=C2/C(=O)OCc3ccccc32)cc(OC)c1OC [25E]
> 200 µg/mL: all assays above

COc1ccc(/C=C2/C(=O)OCc3ccccc32)cc1OC [26E, E-4-[(3′,4′-Dimethoxyphenyl)Methylene]-3-Isochromanone]
> 200 µg/mL: all assays above

O=C1OCc2ccccc2/C1=C\c1cccc(Cl)c1 [28E, E-4-[(3′-Chlorophenyl)Methylene]-3-Isochromanone]
> 200 µg/mL: all assays above

O=C1OCc2ccccc2/C1=C/c1cccc(Cl)c1 [28Z, Z-4-[(3′-chlorophenyl)methylene]-3-isochromanone]
> 200 µg/mL: all assays above

O=C1OCc2ccccc2/C1=C\c1ccc(O)cc1 [29E, E-4-[(4′-Hydroxyphenyl)Methylene]-3-Isochromanone]
> 200 µg/mL: all assays above

COc1cc(/C=C2/C(=O)OCc3ccccc32)ccc1O [30E, E-4-[(4′-Hydroxy-3′-Methoxyphenyl)Methylene]-3-Isochromanone]
150 µg/mL: [1] | [3]
> 200 µg/mL: [2] | [4]
